Test results: patent publication US8183287B2, “Pharmaceutical formulations and compositions of a selective antagonist of either CXCR2 or both CXCR1 and CXCR2 and methods of using the same for treating inflammatory disorders” (Schering Corporation, priority 2006, dated 2012)

Legend:
[1] = clinical study (i): single-dose oral pharmacokinetics, Formulation 1 capsules; type: in vivo, human; details: for AUC / Cmax / Tmax / half-life: both sexes, human, plasma; for AUC: po; for AUC / Cmax / Tmax / half-life / Tf Mean: healthy subjects; for Tmax: read-out: Tmax Median; for half-life: read-out: t1/2 Mean (converted)
[2] = clinical study (ii): single-dose 30 mg, fasted or fed subjects, Formulation 1 capsules; type: in vivo, human; details: single oral dose 30 mg; for Cmax / AUC / half-life / Tmax: both sexes, human, plasma, po, 30 mg; for Cmax / AUC / half-life / Tmax / Tf Mean: healthy subjects; for half-life: read-out: t1/2 Mean; for Tmax: read-out: Tmax Median
[3] = single oral dose 150 mg (+Filgrastim 300 μg)

- AUC ([1]; 10 mg, single oral dose 10 mg, read-out: AUC (tf) Mean): 162 ng·h/mL
- AUC ([1]; 50 mg, single oral dose 50 mg, n = 4, read-out: AUC(I) Mean): 768 ng·h/mL
- AUC ([1]; 50 mg, single oral dose 50 mg, read-out: AUC (tf) Mean): 665 ng·h/mL
- AUC ([1]; 100 mg, single oral dose 100 mg, read-out: AUC (tf) Mean): 827 ng·h/mL
- AUC ([1]; 100 mg, single oral dose 100 mg, read-out: AUC(I) Mean): 878 ng·h/mL
- AUC ([1]; 150 mg, single oral dose 150 mg, read-out: AUC (tf) Mean): 1530 ng·h/mL
- AUC ([1]; 150 mg, single oral dose 150 mg, read-out: AUC(I) Mean): 1640 ng·h/mL
- AUC ([1]; 200 mg, single oral dose 200 mg, read-out: AUC (tf) Mean): 1730 ng·h/mL
- AUC ([1]; 200 mg, single oral dose 200 mg, read-out: AUC(I) Mean): 1810 ng·h/mL
- AUC ([1]; single oral dose 150 mg (+Filgrastim 300 μg), read-out: AUC (tf) Mean): 1320 ng·h/mL
- AUC ([1]; single oral dose 150 mg (+Filgrastim 300 μg), read-out: AUC(I) Mean): 1380 ng·h/mL
- Cmax ([1]; single oral dose 10 mg): 73.8 ng/mL
- Tmax ([1]; single oral dose 10 mg): 1 h
- Cmax ([1]; single oral dose 50 mg): 153 ng/mL
- half-life ([1]; single oral dose 50 mg, n = 4): 15.8 h
- Tmax ([1]; single oral dose 50 mg): 0.75 h
- Cmax ([1]; single oral dose 100 mg): 261 ng/mL
- Tmax ([1]; single oral dose 100 mg): 0.75 h
- half-life ([1]; single oral dose 100 mg): 11.8 h
- Cmax [1, 3]: 292 ng/mL
- Tmax [1, 3]: 0.75 h
- half-life [1, 3]: 13 h
- Cmax ([1]; single oral dose 150 mg): 364 ng/mL
- Tmax ([1]; single oral dose 150 mg): 0.75 h
- half-life ([1]; single oral dose 150 mg): 16.7 h
- Cmax ([1]; single oral dose 200 mg): 416 ng/mL
- Tmax ([1]; single oral dose 200 mg): 0.625 h
- half-life ([1]; single oral dose 200 mg): 11.3 h
- increase of Cmax and AUC with dose ([1]; from 10 to 200 mg): dose-related, but not dose-proportional
- Tf Mean ([1]; single oral dose 10 mg): 14 h
- Tf Mean ([1]; single oral dose 50 mg): 46 h
- Tf Mean ([1]; single oral dose 100 mg): 38 h
- Tf Mean [1, 3]: 58 h
- Tf Mean ([1]; single oral dose 150 mg): 64 h
- Tf Mean ([1]; single oral dose 200 mg): 52 h
- Cmax ([2]; fasted): 147 ng/mL
- AUC ([2]; fasted, n = 10, read-out: AUC(I) Mean): 563 ng·h/mL
- half-life ([2]; fasted, n = 10): 20.8 h
- AUC ([2]; fasted, read-out: AUC (tf) Mean): 484 ng·h/mL
- Tmax ([2]; fasted): 0.75 h
- Cmax ([2]; fed): 122 ng/mL
- AUC ([2]; fed, n = 7, read-out: AUC(I) Mean): 572 ng·h/mL
- half-life ([2]; fed, n = 7): 22.9 h
- AUC ([2]; fed, read-out: AUC (tf) Mean): 489 ng·h/mL
- Tmax ([2]; fed): 2 h
- mean Cmax with food lower than Compound I alone [2]: 17%
- Tf Mean ([2]; fasted): 40 h
- Tf Mean ([2]; fed): 32.3 h
Compound: CC[C@@H](Nc1c(Nc2cccc(C(=O)N(C)C)c2O)c(=O)c1=O)c1ccc(C)o1 [Compound I]
- effect of 300 μg filgrastim on the pharmacokinetic profile ([1]; 150 mg Compound I followed by filgrastim): did not alter the pharmacokinetic profile
